Source: patent publication US20260262655A1, “INHIBITION OF SEED GERMINATION USING A COMBINATION OF BIOLOGICAL AND CHEMICAL INHIBITORS OF ETHYLENE” (Verdesian Life Sciences U.S., LLC, priority 2023, published 2026)
Values joined by “and” are separate entries in the source; they are usually repeats but may differ in a detail not shown here. Equal entries are not always repeated.

Key:
Format in all cases: in vivo
[1] = test system: Cheatgrass, Bromus tectorum; test: Petri dish seed germination test on cheatgrass, with Colby analysis; conditions: for %_Germ—14DAP: Petri Dish Run 1, germination at day 14; for %_Germ11DAP: Petri Dish Run 2, germination at day 11, repetitions R1-R3; for %_Germ_8DAP: germination at day 8, Run1 R0 and Run2 R1-R3
Procedure: (§1) Place 10 seeds on moistened filter paper in 100 mm petri dishes, with three petri dishes per treatment. Using a pipette, apply 0.01 mL of the solution (water for controls, Pseudomonas for treated) evenly over the top surface of each seed. For the ethylene inhibitor treatment, place a small aluminum weigh boat containing lmL inhibitor solution in the petri dish. Ethylene inhibitor solution should be replaced daily. Cover seeds with another sheet of moistened filter paper before closing the petri dish. As needed, moisten the filter paper throughout the experiment with 1 mL of water at a time. Allow plants to germinate and grow for 11 days, removing the filter paper on day 5. Record the number of seeds germinated each day. Image analysis may be used at the end of the experiment to record total root and shoot growth.
One species: Cheatgrass, Bromus tectorum
(§2) Three timings of Pseudomonas fluorescens strain D7 application: 0, 3, and 7 days after planting
(§3) Four seed treatments: water (control), Pseudomonas fluorescens strain D7, 1-MCP, Pseudomonas fluorescens strain D7 and 1-MCP combination
Run 1: 12 seeds/dish, 1 petri dish/treatment combo
Run 2: 10 seeds/dish, 3 petri dishes/treatment combo
A Colby Analysis was carried out for the data obtained in Example 2. The first data set is shown in Table 1 below, where cheatgrass (Bromus tectorum) was treated with Pseudomonas fluorescens strain D7 (D7) and 1-methylcyclopropene (1-MCP) alone or in combination at days 0, 3, and 7 of the treatment period. The percentage of germination was then determined at day 14 of the treatment period.
The Colby equation is a standard method for determining the presence of synergy. The Colby equation is as follows:
[formula] • wherein X and Y are the effects of the active agents (e.g., Pseudomonas fluorescens strain D7 (D7) and 1-methylcyclopropene (1-MCP)) applied alone (expressed as % of control).
The standard Colby equation interpretation is: If Observed Value is greater than the Expected Value, synergy exists. However, based on the goal of reducing germination in this study, the appropriate interpretation here is: If the Observed Value is less than the Expected Value, synergy.

[2] = test system: Tall Fescue; test: Petri dish seed germination test on Tall Fescue; conditions: Tall Fescue seeds
Procedure: as §1, with “1 mL” for “lmL”
(§4) Two species: Tall Fescue and Kentucky Bluegrass
as §2, §3
(§5) Twelve seeds/petri dish (TF), 40 seeds/petri dish (KB)×3 petri dishes/treatment combination

[3] = test system: Kentucky Bluegrass; test: Petri dish seed germination test on Kentucky Bluegrass; conditions: Kentucky Bluegrass seeds
Procedure: as §1, with “1 mL” for “lmL”
as §4, §2, §3, §5

[4] = Petri Dish Run 2 at Day 11, treatment Day 0, mean of repetitions
[5] = Petri Dish Run 2 at Day 11, treatment Day 3, mean of repetitions
[6] = Petri Dish Run 2 at Day 11, treatment Day 7, mean of repetitions
[7] = treatment Day 0, day 8, mean of Run1 and Run2 repetitions
[8] = treatment Day 3, day 8, mean of Run1 and Run2 repetitions
[9] = treatment Day 7, day 8, mean of Run1 and Run2 repetitions

## CC1=CC1 [1-MCP, 1-methylcyclopropene, reference compound]
[1]; treatment Day 0
  %_Germ—14DAP: 75.00%
[1]; treatment Day 3
  %_Germ—14DAP: 25.00%
[1]; treatment Day 7
  %_Germ—14DAP: 100.00%
[1]; treatment Day 0, listed as 1-MCP alone
  %_Germ11DAP: 80% and 90%
[1]; treatment Day 3, listed as 1-MCP alone
  %_Germ11DAP: 80% and 90%
[1]; treatment Day 7, listed as 1-MCP alone
  %_Germ11DAP: 100% and 70% and 80%
[1]; [4]
  Day 8% Germ Mean: 86.67%
[1]; [5]
  Day 8% Germ Mean: 83.33%
[1]; [6]
  Day 8% Germ Mean: 83.33%
[1]; [7]
  Day 8% Germ Mean: 81.25%
[1]; treatment Day 0, listed as MCP
  %_Germ_8DAP: 75.00% and 80.0% and 90.0%
[1]; [8]
  Day 8% Germ Mean: 61.25%
[1]; [9]
  Day 8% Germ Mean: 75.83%
[1]; treatment Day 7, listed as MCP
  %_Germ_8DAP: 83.33% and 90.0% and 60.0% and 70.0%

## Pseudomonas fluorescens strain D7
[2]
  effect on germination: did not affect germination
[1]; treatment Day 0
  %_Germ—14DAP: 58.33%
[1]; treatment Day 3
  %_Germ—14DAP: 83.33%
  %_Germ_8DAP: 83.33% and 100.0% and 60.0% and 50.0%
[1]; treatment Day 7
  %_Germ—14DAP: 75.00%
  %_Germ_8DAP: 50.00% and 80.0% and 60.0% and 70.0%
[1]; treatment Day 0, listed as D7 Alone
  %_Germ11DAP: 60% and 50%
[1]; treatment Day 3, listed as D7 Alone
  %_Germ11DAP: 100% and 60% and 70%
[1]; treatment Day 7, listed as D7 Alone
  %_Germ11DAP: 90% and 60% and 70%
[1]; [4]
  Day 8% Germ Mean: 56.67%
[1]; [5]
  Day 8% Germ Mean: 76.67%
[1]; [6]
  Day 8% Germ Mean: 73.33%
[1]; application 0, 3 or 7 days after planting
  influence of application time on germination outcomes: early application being the most effective
[1]; [7]
  Day 8% Germ Mean: 31.67%
[1]; [8]
  Day 8% Germ Mean: 73.33%
[1]; [9]
  Day 8% Germ Mean: 65.00%
[3]
  effect on germination: did not affect germination
